test system: Escherichia coli ATCC 25922; assay: Minimum inhibitory concentration (MIC), CLSI broth micro-dilution, E. coli; format: cell-based; conditions: Escherichia coli, ATCC25922, 22 h, Table 6, cation adjusted Mueller Hinton Broth + 0.002% Tween-80, 35° C.
Method in brief: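 Antibacterial potency is measured as MIC by the CLSI broth dilution method. Bacteria at OD600 0.0005 in Tween-80-supplemented cation-adjusted Mueller Hinton broth face ten twofold compound dilutions for 22 h at 35° C.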

Compound	MIC [µM]
CC(=O)Nc1cc(C(=O)N[C@@H](CCN)C(=O)N(C)[C@@H]2C(=O)N[C@@H](C)C(=O)N[C@H](C(=O)NCC#N)Cc3ccc(OCCN)c(c3)-c3cc2ccc3OCCN)c(C)nc1-c1ccc(C(C)(C)C)cc1 (racemic) [Compound 533, rac-(8S,11S,14S)-3,18-bis(2-aminoethoxy)-N-(cyanomethyl)-11-methyl-14-[methyl-[rac-(2S)-2-[[5-acetamido-6-(4-tert-butylphenyl)-2-methyl-pyridine-3-carbonyl]amino]-4-amino-butanoyl]amino]-10,13-dioxo-9,12-diazatricyclo[13.3.1.12,6]icosa-1(18),2(20),3,5,15(19),16-hexaene-8-carboxamide]	1.5
Cc1nc(-c2ccc(OCCC(C)(C)C)cn2)nc(N)c1C(=O)N[C@@H](CCN)C(=O)N(C)[C@@H]1C(=O)N[C@@H](C)C(=O)N[C@H](C(=O)NCC#N)Cc2ccc(OCCN)c(c2)-c2cc1ccc2OCCN (racemic) [Compound 534, rac-(8S,11S,14S)-3,18-bis(2-aminoethoxy)-N-(cyanomethyl)-11-methyl-14-[methyl-[rac-(2S)-4-amino-2-[[4-amino-2-[5-(3,3-dimethylbutoxy)-2-pyridyl]-6-methyl-pyrimidine-5-carbonyl]amino]butanoyl]amino]-10,13-dioxo-9,12-diazatricyclo[13.3.1.12,6]icosa-1(18),2(20),3,5,15(19),16-hexaene-8-carboxamide]	0.5
Cc1nc(-c2ccc(C(C)(C)C)cc2)c(C(F)(F)F)cc1C(=O)N[C@@H](CCN)C(=O)N(C)[C@@H]1C(=O)N[C@@H](C)C(=O)N[C@H](C(=O)NCC#N)Cc2ccc(OCCN)c(c2)-c2cc1ccc2OCCN (racemic) [Compound 537, rac-(8S,11S,14S)-3,18-bis(2-aminoethoxy)-N-(cyanomethyl)-11-methyl-14-[methyl-[rac-(2S)-4-amino-2-[[6-(4-tert-butylphenyl)-2-methyl-5-(trifluoromethyl)pyridine-3-carbonyl]amino]butanoyl]amino]-10,13-dioxo-9,12-diazatricyclo[13.3.1.12,6]icosa-1(18),2(20),3,5,15(19),16-hexaene-8-carboxamide]	0.25
Cc1nc(-c2ccc(OCCC(C)(C)C)cc2)cc(N)c1C(=O)N[C@@H](CCN)C(=O)N(C)[C@@H]1C(=O)N[C@@H](C)C(=O)N[C@H](C(=O)NCC#N)Cc2ccc(OCCN)c(c2)-c2cc1ccc2OCCN (racemic) [Compound 538, rac-(8S,11S,14S)-3,18-bis(2-aminoethoxy)-N-(cyanomethyl)-11-methyl-14-[methyl-[rac-(2S)-4-amino-2-[[4-amino-6-[4-(3,3-dimethylbutoxy)phenyl]-2-methyl-pyridine-3-carbonyl]amino]butanoyl]amino]-10,13-dioxo-9,12-diazatricyclo[13.3.1.12,6]icosa-1(18),2(20),3,5,15(19),16-hexaene-8-carboxamide]	0.063
Cc1cc(-c2ccc(C(C)(C)C)cc2)cc(C)c1C(=O)N[C@@H](CCN)C(=O)N(C)[C@@H]1C(=O)N[C@@H](C)C(=O)N[C@H](C(=O)NCC#N)Cc2ccc(O)c(c2)-c2cc1ccc2OCCN (racemic) [Compound 541, rac-(8S,11S,14S)-18-(2-aminoethoxy)-N-(cyanomethyl)-3-hydroxy-11-methyl-14-[methyl-[rac-(2S)-4-amino-2-[[4-(4-tert-butylphenyl)-2,6-dimethyl-benzoyl]amino]butanoyl]amino]-10,13-dioxo-9,12-diazatricyclo[13.3.1.12,6]icosa-1(18),2(20),3,5,15(19),16-hexaene-8-carboxamide]	0.75
Cc1nc(-c2ccc(OC3CCCCCC3)cc2)cc(N)c1C(=O)N[C@@H](CCN)C(=O)N(C)[C@@H]1C(=O)N[C@@H](C)C(=O)N[C@H](C(=O)NCC#N)Cc2ccc(OCCN)c(c2)-c2cc1ccc2OCCN (racemic) [Compound 545, rac-(8S,11S,14S)-3,18-bis(2-aminoethoxy)-N-(cyanomethyl)-11-methyl-14-[methyl-[rac-(2S)-4-amino-2-[[4-amino-6-[4-(cycloheptoxy)phenyl]-2-methyl-pyridine-3-carbonyl]amino]butanoyl]amino]-10,13-dioxo-9,12-diazatricyclo[13.3.1.12,6]icosa-1(18),2(20),3,5,15(19),16-hexaene-8-carboxamide]	1
Cc1nc(-c2cnc(OCCC(C)(C)C)nc2)nc(C)c1C(=O)N[C@@H](CCN)C(=O)N(C)[C@@H]1C(=O)N[C@@H](C)C(=O)N[C@H](C(=O)NCC#N)Cc2ccc(OCCN)c(c2)-c2cc1ccc2OCCN (racemic) [Compound 550, rac-(8S,11S,14S)-3,18-bis(2-aminoethoxy)-N-(cyanomethyl)-11-methyl-14-[methyl-[rac-(2S)-4-amino-2-[[2-[2-(3,3-dimethylbutoxy)pyrimidin-5-yl]-4,6-dimethyl-pyrimidine-5-carbonyl]amino]butanoyl]amino]-10,13-dioxo-9,12-diazatricyclo[13.3.1.12,6]icosa-1(18),2(20),3,5,15(19),16-hexaene-8-carboxamide]	2

Continued, values first:

MIC [µM]	Compound
1.5	Cc1nc(-c2cnc(C(C)(C)C)nc2)nc(C)c1C(=O)N[C@@H](CCN)C(=O)N(C)[C@@H]1C(=O)N[C@@H](C)C(=O)N[C@H](C(=O)NCC#N)Cc2ccc(OCCN)c(c2)-c2cc1ccc2OCCN (racemic) [Compound 540, rac-(8S,11S,14S)-3,18-bis(2-aminoethoxy)-N-(cyanomethyl)-11-methyl-14-[methyl-[rac-(2S)-4-amino-2-[[2-(2-tert-butylpyrimidin-5-yl)-4,6-dimethyl-pyrimidine-5-carbonyl]amino]butanoyl]amino]-10,13-dioxo-9,12-diazatricyclo[13.3.1.12,6]icosa-1(18),2(20),3,5,15(19),16-hexaene-8-carboxamide]
0.13	Cc1nc(-c2ccc(OC3CCCCC3)cc2)cc(N)c1C(=O)N[C@@H](CCN)C(=O)N(C)[C@@H]1C(=O)N[C@@H](C)C(=O)N[C@H](C(=O)NCC#N)Cc2ccc(OCCN)c(c2)-c2cc1ccc2OCCN (racemic) [Compound 544, rac-(8S,11S,14S)-3,18-bis(2-aminoethoxy)-N-(cyanomethyl)-11-methyl-14-[methyl-[rac-(2S)-4-amino-2-[[4-amino-6-[4-(cyclohexoxy)phenyl]-2-methyl-pyridine-3-carbonyl]amino]butanoyl]amino]-10,13-dioxo-9,12-diazatricyclo[13.3.1.12,6]icosa-1(18),2(20),3,5,15(19),16-hexaene-8-carboxamide]
0.38	CCc1nc(-c2ccc(C(C)(C)C)cc2)cc(N)c1C(=O)N[C@@H](CCN)C(=O)N(C)[C@@H]1C(=O)N[C@@H](C)C(=O)N[C@H](C(=O)NCC#N)Cc2ccc(OCCN)c(c2)-c2cc1ccc2OCCN (racemic) [Compound 546, rac-(8S,11S,14S)-3,18-bis(2-aminoethoxy)-N-(cyanomethyl)-11-methyl-14-[methyl-[rac-(2S)-4-amino-2-[[4-amino-6-(4-tert-butylphenyl)-2-ethyl-pyridine-3-carbonyl]amino]butanoyl]amino]-10,13-dioxo-9,12-diazatricyclo[13.3.1.12,6]icosa-1(18),2(20),3,5,15(19),16-hexaene-8-carboxamide]
0.094	Cc1nc(-c2ccc(OC3CCCCC3)cc2)nc(N)c1C(=O)N[C@@H](CCN)C(=O)N(C)[C@@H]1C(=O)N[C@@H](C)C(=O)N[C@H](C(=O)NCC#N)Cc2ccc(OCCN)c(c2)-c2cc1ccc2OCCN (racemic) [Compound 547, rac-(8S,11S,14S)-3,18-bis(2-aminoethoxy)-N-(cyanomethyl)-11-methyl-14-[methyl-[rac-(2S)-4-amino-2-[[4-amino-2-[4-(cyclohexoxy)phenyl]-6-methyl-pyrimidine-5-carbonyl]amino]butanoyl]amino]-10,13-dioxo-9,12-diazatricyclo[13.3.1.12,6]icosa-1(18),2(20),3,5,15(19),16-hexaene-8-carboxamide]
1	Cc1nc(-c2ccc(C(C)(C)C)cc2)cc(OCC(N)=O)c1C(=O)N[C@@H](CCN)C(=O)N(C)[C@@H]1C(=O)N[C@@H](C)C(=O)N[C@H](C(=O)NCC#N)Cc2ccc(OCCN)c(c2)-c2cc1ccc2OCCN (racemic) [Compound 551, rac-(8S,11S,14S)-3,18-bis(2-aminoethoxy)-N-(cyanomethyl)-11-methyl-14-[methyl-[rac-(2S)-4-amino-2-[[4-(2-amino-2-oxo-ethoxy)-6-(4-tert-butylphenyl)-2-methyl-pyridine-3-carbonyl]amino]butanoyl]amino]-10,13-dioxo-9,12-diazatricyclo[13.3.1.12,6]icosa-1(18),2(20),3,5,15(19),16-hexaene-8-carboxamide]
0.094	C[C@@H]1NC(=O)[C@@H](N(C)C(=O)[C@H](CCN)NC(=O)c2c(N)cc(-c3ccc(C(C)(C)C)cc3)nc2Cl)c2ccc(OCCN)c(c2)-c2cc(ccc2OCCN)C[C@@H](C(=O)NCC#N)NC1=O (racemic) [Compound 554, rac-(8S,11S,14S)-3,18-bis(2-aminoethoxy)-N-(cyanomethyl)-11-methyl-14-[methyl-[rac-(2S)-4-amino-2-[[4-amino-6-(4-tert-butylphenyl)-2-chloro-pyridine-3-carbonyl]amino]butanoyl]amino]-10,13-dioxo-9,12-diazatricyclo[13.3.1.12,6]icosa-1(18),2(20),3,5,15(19),16-hexaene-8-carboxamide]
0.19	Cc1nc(-c2ccc(N3[C@H](C)CCC[C@@H]3C)cc2)nc(C)c1C(=O)N[C@@H](CCN)C(=O)N(C)[C@@H]1C(=O)N[C@@H](C)C(=O)N[C@H](C(=O)NCC#N)Cc2ccc(OCCN)c(c2)-c2cc1ccc2OCCN (racemic) [Compound 555, rac-(8S,11S,14S)-3,18-bis(2-aminoethoxy)-N-(cyanomethyl)-11-methyl-14-[methyl-[rac-(2S)-4-amino-2-[[4,6-dimethyl-2-[4-[rac-(2R,6S)-2,6-dimethyl-1-piperidyl]phenyl]pyrimidine-5-carbonyl]amino]butanoyl]amino]-10,13-dioxo-9,12-diazatricyclo[13.3.1.12,6]icosa-1(18),2(20),3,5,15(19),16-hexaene-8-carboxamide]
